Tests used:
Format in all cases: in vivo
[1] = test system: Surinam grass (Brachiaria decumbens); experiment: Test C postemergence
Procedure, shortened: (§1)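 Preemergence: seeds sown then treated. Postemergence: plants 2–18 cm, 1- to 4-leaf. Both with surfactant-containing solvent formulation; visual injury scored 0–100 after 12–14 d.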

[2] = test system: bermudagrass (Cynodon dactylon); experiment: Test C postemergence
Procedure, shortened: as §1

[3] = test system: cocklebur (Xanthium strumarium); experiment: Test C postemergence
Procedure, shortened: as §1

[4] = test system: corn (Zea mays); experiment: Test C postemergence
Procedure, shortened: as §1

[5] = test system: crabgrass (Digitaria sanguinalis); experiment: Test C postemergence
Procedure, shortened: as §1

[6] = test system: giant foxtail (Setaria faberii); experiment: Test C postemergence
Procedure, shortened: as §1

[7] = test system: goosegrass (Eleusine indica); experiment: Test C postemergence
Procedure, shortened: as §1

[8] = test system: johnsongrass (Sorghum halepense); experiment: Test C postemergence
Procedure, shortened: as §1

[9] = test system: kochia (Kochia scoparia); experiment: Test C postemergence
Procedure, shortened: as §1

[10] = test system: lambsquarters (Chenopodium album); experiment: Test C postemergence
Procedure, shortened: as §1

[11] = test system: morningglory (Ipomoea hederacea); experiment: Test C postemergence
Procedure, shortened: as §1

[12] = test system: pigweed (Amaranthus retroflexus); experiment: Test C postemergence
Procedure, shortened: as §1

[13] = test system: soybean (Glycine max); experiment: Test C postemergence
Procedure, shortened: as §1

[14] = test system: velvetleaf (Abutilon theophrasti); experiment: Test C postemergence
Procedure, shortened: as §1

[15] = test system: woolly cupgrass (Eriochloa villosa); experiment: Test C postemergence
Procedure, shortened: as §1

[16] = test system: yellow nutsedge (Cyperus esculentus); experiment: Test C postemergence
Procedure, shortened: as §1

[17] = test system: Sunflower; experiment: Test C preemergence; settings: Rate 125 g/ha; scale 0 to 100, 0 no effect, 100 complete control
[18] = test system: bermudagrass (Cynodon dactylon); experiment: Test C preemergence; settings: for Plant response rating (0 to 100 where 0 is no effect and 100 is complete control), Bermudagrass: Rate 500 g/ha, visual evaluation after 12 to 14 days
Procedure, shortened: as §1

[19] = test system: giant foxtail (Setaria faberii); experiment: Test C preemergence; settings: for Plant response rating (0 to 100), Foxtail, Giant: Rate 500 g/ha, visual evaluation after 12 to 14 days
Procedure, shortened: as §1

[20] = test system: pigweed (Amaranthus retroflexus); experiment: Test C preemergence; settings: for Plant response rating (0 to 100), Pigweed: Rate 500 g/ha, visual evaluation after 12 to 14 days
Procedure, shortened: as §1

[21] = test system: yellow nutsedge (Cyperus esculentus); experiment: Test C preemergence; settings: for Plant response rating (0 to 100), Nutsedge: Rate 500 g/ha, visual evaluation after 12 to 14 days
Procedure, shortened: as §1

[22] = Rate 125 g/ha, scale 0 to 100, 0 no effect, 100 complete control
[23] = Rate 250 g/ha, scale 0 to 100 (0 no effect, 100 complete control)
[24] = Rate 500 g/ha, scale 0 to 100 (0 no effect, 100 complete control)
[25] = preemergence, Rate 62 g/ha, scale 0 to 100
[26] = preemergence, Rate 250 g/ha, scale 0 to 100, 0 no effect, 100 complete control

Compound: CCC(C)c1ccn(C2CCN(c3ccc(Cl)c(OC)c3)C2=O)n1 (stereo not shown) [Compound 119]
- Plant response rating, Surinam grass ([1]; Rate 62 g/ha, scale 0 to 100): 0
- Plant response rating, Surinam grass [1, 22]: 0
- Plant response rating, Surinam grass [1, 23]: 0
- Plant response rating, Surinam grass [1, 24]: 20
- Plant response rating, Bermudagrass ([2]; Rate 62 g/ha, scale 0 to 100): 0
- Plant response rating, Bermudagrass [2, 22]: 0
- Plant response rating, Bermudagrass [2, 23]: 0
- Plant response rating, Bermudagrass [2, 24]: 0
- Plant response rating, Cocklebur ([3]; Rate 62 g/ha, scale 0 to 100): 50
- Plant response rating, Cocklebur [3, 23]: 70
- Plant response rating, Corn ([4]; Rate 62 g/ha, scale 0 to 100): 20
- Plant response rating, Corn [4, 23]: 20
- Plant response rating, Corn [4, 24]: 50
- Plant response rating, Corn ([4]; scale 0 to 100): 20
- Plant response rating, Crabgrass ([5]; Rate 62 g/ha, scale 0 to 100): 30
- Plant response rating, Crabgrass [5, 23]: 30
- Plant response rating, Crabgrass [5, 24]: 60
- Plant response rating, Foxtail, Giant ([6]; Rate 62 g/ha, scale 0 to 100): 0
- Plant response rating, Foxtail, Giant [6, 23]: 0
- Plant response rating, Foxtail, Giant [6, 24]: 80
- Plant response rating, Goosegrass ([7]; Rate 62 g/ha, scale 0 to 100): 0
- Plant response rating, Goosegrass [7, 23]: 0
- Plant response rating, Goosegrass [7, 24]: 30
- Plant response rating, Johnsongrass ([8]; Rate 62 g/ha, scale 0 to 100): 0
- Plant response rating, Johnsongrass [8, 23]: 0
- Plant response rating, Johnsongrass [8, 24]: 0
- Plant response rating, Johnsongrass ([8]; rate not given, scale 0 to 100): 0
- Plant response rating, Kochia ([9]; Rate 62 g/ha, scale 0 to 100): 60
- Plant response rating, Kochia [9, 23]: 90
- Plant response rating, Kochia [9, 24]: 90
- Plant response rating, Lambsquarters ([10]; Rate 62 g/ha, scale 0 to 100): 90
- Plant response rating, Lambsquarters [10, 23]: 90
- Plant response rating, Lambsquarters [10, 24]: 100
- Plant response rating, Morningglory ([11]; Rate 62 g/ha, scale 0 to 100): 80
- Plant response rating, Morningglory [11, 23]: 100
- Plant response rating, Pigweed ([12]; Rate 62 g/ha, scale 0 to 100): 40
- Plant response rating, Pigweed [12, 23]: 90
- Plant response rating, Soybean ([13]; Rate 62 g/ha, scale 0 to 100): 40
- Plant response rating, Soybean [13, 23]: 80
- Plant response rating, Soybean [13, 24]: 90
- Plant response rating, Velvetleaf ([14]; Rate 62 g/ha, scale 0 to 100): 0
- Plant response rating, Velvetleaf [14, 23]: 10
- Plant response rating, Velvetleaf [14, 24]: 20
- Plant response rating, Velvetleaf ([14]; scale 0 to 100): 0
- Plant response rating, Cupgrass, Woolly ([15]; Rate 62 g/ha, scale 0 to 100): 0
- Plant response rating, Cupgrass, Woolly [15, 23]: 0
- Plant response rating, Cupgrass, Woolly [15, 24]: 20
- Plant response rating, Nutsedge ([16]; Rate 62 g/ha, scale 0 to 100): 0
- Plant response rating, Nutsedge [16, 23]: 0
- Plant response rating, Nutsedge [16, 24]: 0
- Plant response rating, Sunflower [17]: 40
- Plant response rating, Bermudagrass [18, 22]: 100
- Plant response rating, Bermudagrass [18, 25]: 100
- Plant response rating (0 to 100 where 0 is no effect and 100 is complete control), Bermudagrass ([18]; preemergence): 100
- Plant response rating, Bermudagrass [18, 26]: 100
- Plant response rating, Foxtail, Giant [19, 22]: 100
- Plant response rating, Foxtail, Giant [19, 25]: 50
- Plant response rating (0 to 100), Foxtail, Giant ([19]; preemergence): 100
- Plant response rating, Foxtail, Giant [19, 26]: 90
- Plant response rating, Pigweed [20, 22]: 50
- Plant response rating, Pigweed [20, 25]: 50
- Plant response rating (0 to 100), Pigweed ([20]; preemergence): 100
- Plant response rating, Pigweed [20, 26]: 90
- Plant response rating, Nutsedge [21, 22]: 20
- Plant response rating, Nutsedge [21, 25]: 0
- Plant response rating (0 to 100), Nutsedge ([21]; preemergence): 30
- Plant response rating, Nutsedge [21, 26]: 30

Compound: CCC(CC)c1ccn(C2OCN(c3cccc(OC(F)F)c3)C2=O)n1 (stereo not shown) [Compound 131]
- Plant response rating, Surinam grass ([1]; Rate 62 g/ha, scale 0 to 100): 0
- Plant response rating, Surinam grass [1, 23]: 40
- Plant response rating, Surinam grass [1, 24]: 40
- Plant response rating, Bermudagrass ([2]; Rate 62 g/ha, scale 0 to 100): 20
- Plant response rating, Bermudagrass [2, 22]: 60
- Plant response rating, Bermudagrass [2, 23]: 90
- Plant response rating, Bermudagrass [2, 24]: 90
- Plant response rating, Cocklebur ([3]; Rate 62 g/ha, scale 0 to 100): 0
- Plant response rating, Cocklebur [3, 23]: 30
- Plant response rating, Cocklebur [3, 24]: 30
- Plant response rating, Corn ([4]; Rate 62 g/ha, scale 0 to 100): 0
- Plant response rating, Corn [4, 23]: 20
- Plant response rating, Corn [4, 24]: 30
- Plant response rating, Corn ([4]; scale 0 to 100): 10
- Plant response rating, Crabgrass [5, 23]: 80
- Plant response rating, Crabgrass [5, 24]: 90
- Plant response rating, Foxtail, Giant ([6]; Rate 62 g/ha, scale 0 to 100): 20
- Plant response rating, Foxtail, Giant [6, 23]: 50
- Plant response rating, Foxtail, Giant [6, 24]: 80
- Plant response rating, Goosegrass ([7]; Rate 62 g/ha, scale 0 to 100): 40
- Plant response rating, Goosegrass [7, 23]: 70
- Plant response rating, Goosegrass [7, 24]: 80
- Plant response rating, Johnsongrass ([8]; Rate 62 g/ha, scale 0 to 100): 0
- Plant response rating, Johnsongrass [8, 24]: 30
- Plant response rating, Johnsongrass ([8]; rate not given, scale 0 to 100): 20
- Plant response rating, Kochia ([9]; Rate 62 g/ha, scale 0 to 100): 60
- Plant response rating, Kochia [9, 23]: 80
- Plant response rating, Kochia [9, 24]: 90
- Plant response rating, Lambsquarters ([10]; Rate 62 g/ha, scale 0 to 100): 100
- Plant response rating, Lambsquarters [10, 23]: 100
- Plant response rating, Lambsquarters [10, 24]: 100
- Plant response rating, Morningglory [11, 23]: 80
- Plant response rating, Morningglory [11, 24]: 100
- Plant response rating, Pigweed ([12]; Rate 62 g/ha, scale 0 to 100): 20
- Plant response rating, Pigweed [12, 23]: 90
- Plant response rating, Pigweed [12, 24]: 100
- Plant response rating, Soybean ([13]; Rate 62 g/ha, scale 0 to 100): 20
- Plant response rating, Soybean [13, 23]: 30
- Plant response rating, Soybean [13, 24]: 50
- Plant response rating, Velvetleaf ([14]; Rate 62 g/ha, scale 0 to 100): 20
- Plant response rating, Velvetleaf [14, 23]: 20
- Plant response rating, Velvetleaf [14, 24]: 30
- Plant response rating, Velvetleaf ([14]; scale 0 to 100): 20
- Plant response rating, Cupgrass, Woolly ([15]; Rate 62 g/ha, scale 0 to 100): 10
- Plant response rating, Cupgrass, Woolly [15, 23]: 70
- Plant response rating, Cupgrass, Woolly [15, 24]: 80
- Plant response rating, Nutsedge ([16]; Rate 62 g/ha, scale 0 to 100): 0
- Plant response rating, Nutsedge [16, 23]: 0
- Plant response rating, Nutsedge [16, 24]: 0
- Plant response rating, Sunflower [17]: 20
- Plant response rating, Bermudagrass [18, 22]: 100
- Plant response rating, Bermudagrass [18, 25]: 100
- Plant response rating (0 to 100 where 0 is no effect and 100 is complete control), Bermudagrass ([18]; preemergence): 100
- Plant response rating, Bermudagrass [18, 26]: 100
- Plant response rating, Foxtail, Giant [19, 22]: 100
- Plant response rating, Foxtail, Giant [19, 25]: 90
- Plant response rating (0 to 100), Foxtail, Giant ([19]; preemergence): 100
- Plant response rating, Foxtail, Giant [19, 26]: 100
- Plant response rating, Pigweed [20, 22]: 90
- Plant response rating, Pigweed [20, 25]: 90
- Plant response rating (0 to 100), Pigweed ([20]; preemergence): 100
- Plant response rating, Pigweed [20, 26]: 100
- Plant response rating, Nutsedge [21, 22]: 90
- Plant response rating, Nutsedge [21, 25]: 0
- Plant response rating (0 to 100), Nutsedge ([21]; preemergence): 100
- Plant response rating, Nutsedge [21, 26]: 90

— patent US7138361B2, “Herbicidal heterocycles” (E. I. du Pont de Nemours and Company, priority 2000, dated 2006)
